Laboratory results from patent US12403132B2, “Methods of treating bone marrow failure syndromes and compositions for use in the same” (The Board of Trustees of the Leland Stanford Junior …, priority 2020, dated 2025).

Columns and labels:
S6K = S6K phosphorylation in differentiating RPS19-insufficient CD34+ progenitors; type: cell-based, human; settings: 5 μM, differentiating RPS19-insufficient cells
Method: FIG. 5. NLK-mediated phosphorylation of raptor leads to reduced mTOR activity and increased autophagy. (a) Fetal liver CD34+ progenitors were transduced with controls or shRPS19 and differentiated for 5 days in the presence or absence of 5 μM BI-D1870 (RSK inhibitor). Samples were lysed and normalized for protein abundance before being subjected to immunoprecipitation of NLK, raptor, S6K and 4E-BP1. Immunoprecipitated NLK was utilized to examine NLK activity (a—top panel—Orange, blue and green depict NLK, Myb and raptor phosphorylation respectively), while raptor, S6K and 4E-BP1 were subjected to western blotting for phosphorylated serine/threonine residues (bottom panels). In parallel, lysates were probed for total raptor, S6K, 4E-BP1, NLK and GAPDH (bottom panels) by Western blotting. […] (d) Cells treated as above were plated in 96 wells and absorbance measured at a wavelength of 520 nm. […] After imagining, 100 cells per group were analyzed and the number of intense fluorescent puncta per cell was scored (lower panels).
Raptor is the regulatory component of the mTOR Complex 1 and a substrate of NLK in osmotic and oxidative stress. […] We determined immuno-purified NLK from human and murine RPS19- and RPL11-insufficient progenitors, as well as derived from DBA patients can phosphorylate raptor in vitro (FIGS. 1-4). […]

NLK = biological target: T1, NLK (Homo sapiens, UniProt Q9UBE8); experiment: NLK inhibition by OTS167 in DBA models
T1 sequence (Q9UBE8 1-527): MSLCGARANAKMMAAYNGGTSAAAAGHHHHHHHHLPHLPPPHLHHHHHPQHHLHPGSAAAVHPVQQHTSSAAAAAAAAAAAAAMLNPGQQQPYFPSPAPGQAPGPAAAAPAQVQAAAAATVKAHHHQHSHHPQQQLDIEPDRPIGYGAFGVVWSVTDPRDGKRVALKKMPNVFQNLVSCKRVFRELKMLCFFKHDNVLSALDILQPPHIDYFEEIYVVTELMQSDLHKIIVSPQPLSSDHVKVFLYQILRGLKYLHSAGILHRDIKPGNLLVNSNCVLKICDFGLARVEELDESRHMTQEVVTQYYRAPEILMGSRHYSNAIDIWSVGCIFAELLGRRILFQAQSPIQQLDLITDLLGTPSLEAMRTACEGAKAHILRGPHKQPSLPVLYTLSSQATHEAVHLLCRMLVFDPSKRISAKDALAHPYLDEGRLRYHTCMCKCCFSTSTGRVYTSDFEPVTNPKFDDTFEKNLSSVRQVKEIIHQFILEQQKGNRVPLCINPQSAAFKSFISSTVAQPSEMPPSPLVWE
Description: (§1) IV. Nemo-like kinase (NLK) is hyperactivated in red cell precursors in the bone marrow of patients with DBA. Inhibition of NLK by knockdown or chemical compounds in our in vitro DBA models results in improvement of red cell production. Regardless of the underlying genetic mutation causing DBA, NLK is hyperactivated. […] Our goal is to next test OTS167 in mouse models of DBA. According to clinical trials.gov, OTS167 is currently in trials for AML, ALL, MDS, MPN, and CML, solid tumors, and breast cancer, but not DBA. This is the first example of a targeted therapy for all DBA patient regardless of the underlying mutations. Giving this drug would be easier and cheaper than gene editing to correct the gene defect.

red cell production = experiment: Red cell production in in vitro DBA models; type: cell-based
Description: as §1

normal bone marrow cells = experiment: Toxicity to normal bone marrow cells; type: cell-based; settings: in vitro
Description: as §1

| inhibition of NLK (NLK) | Compound | S6K phosphorylation (S6K) | red cell production in vitro (red cell production) | toxicity to normal bone marrow cells (normal bone marrow cells) |
| --- | --- | --- | --- | --- |
|  | CC(C)CCN1c2nc(Nc3cc(F)c(O)c(F)c3)ncc2N(C)C(=O)C1C (stereo not shown) [BI-D1870] | reduced to below basal levels |  |  |
| inhibit NLK | CC(=O)c1cnc2ccc(-c3cc(Cl)c(O)c(Cl)c3)nc2c1N[C@H]1CC[C@H](CN(C)C)CC1 [OTS167] |  | improves red cell production | without toxicity |
